Tested on: L. brevis
Experiment: Reduction of lactic acid bacteria in inoculated corn mash (plate count on MRS agar)
Assay type: cell-based, Lactobacillus brevis
Conditions: corn mash inoculated with L. brevis
Description: In this example, corn mash was obtained from a commercial ethanol plant immediately after the liquefaction step. The mash was cooled to room temperature and then inoculated with L. brevis cultures prepared as was described in Example 1. 50 ml portions of the inoculated corn mash were treated with SCD, HP and a combination of both as follows:
Following treatment, the samples were incubated for 2 hours in a shaking incubator. Surviving bacteria in each sample was enumerated by plating serial dilutions of each on MRS agar plates (available from Difco Laboratories, Inc., Sparks, Md.) and further incubating the plates for 48 hours at 32° C.

OO [HP, hydrogen peroxide]
Viable cells after 2 hours (50 ppm HP): 7.48 Log CFU/g | Viable cells after 2 hours (100 ppm HP): 5.97 Log CFU/g
